Data taken from patent US10035760B2, “Inhibitors of human immunodeficiency virus replication” (priority 2013, dated 2018).
Like-named read-outs stand apart in the source and are kept apart here.

Test system: recombinant NL4-3 virus (Renilla luciferase) in MT-2 cells
Experiment: HIV cell culture assay (antiviral activity, luciferase readout in infected MT-2 cells)
Assay type: cell-based
Description: HIV cell culture assay—MT-2 cells, 293T cells and the proviral DNA clone of NL4-3 virus were obtained from the NIH AIDS Research and Reference Reagent Program. MT-2 cells were propagated in RPMI 1640 media supplemented with 10% heat inactivated fetal bovine serum (FBS), 100 ug/ml penicillin G and up to 100 units/ml streptomycin. The 293T cells were propagated in DMEM media supplemented with 10% heat inactivated FBS, 100 ug/ml penicillin G and 100 ug/ml streptomycin. A recombinant NL4-3 proviral clone, in which a section of the nef gene was replaced with the Renilla luciferase gene, was used to make the reference virus used in these studies. The recombinant virus was prepared through transfection of the recombinant NL4-3 proviral clone into 293T cells using Transit-293 Transfection Reagent from Mirus Bio LLC (Madison, Wis.). Supernatent was harvested after 2-3 days after transfection, and the amount of virus present was titered in MT-2 cells using luciferase enzyme activity as a marker. Luciferase activity was quantitated using the EnduRen Live Cell Substrate from Promega (Madison, Wis.). Antiviral activities of compounds toward the recombinant virus were quantified by measuring luciferase activity in MT-2 cells infected for 4-5 days with the recombinant virus in the presence of serial dilutions of the compound.
The 50% effective concentration (EC50) was calculated by using the exponential form of the median effect equation where (Fa)=1/[1+(ED50/drug conc.)^m](Johnson V A, Byington R T. Infectivity Assay. In Techniques in HIV Research. ed. Aldovini A, Walker B D. 71-76. New York: Stockton Press. 1990).

[1] = Renilla, NL43, read-out: Activity, antiviral activity class, recombinant NL4-3 Renilla luciferase virus in MT-2 cells
[2] = Renilla, NL43, recombinant NL4-3 Renilla luciferase virus in MT-2 cells

Compound	EC50 [1] [nM]	EC50 [2] [nM]	EC50 (recombinant NL4-3 Renilla luciferase virus in MT-2 cells, read-out: EC50) [nM]
Cc1ccccc1S(=O)(=O)NC(=O)N[C@@H](Cc1ccccc1)C(=O)N1CCCc2cc(O)ccc21 [Example 173, (S)—N-((1-(6-hydroxy-3,4-dihydroquinolin-1 (2H)-yl)-1-oxo-3-phenylpropan-2-yl)carbamoyl)-2-methylbenzenesulfonamide]	100 to 1000	–	–
Cc1ccccc1S(=O)(=O)NC(=O)N[C@@H](Cc1ccccc1)C(=O)N(C)c1ccc(F)cc1 [Example 169, (S)—N-(4-fluorophenyl)-N-methyl-3-phenyl-2-(3-(o-tolylsulfonyl)ureido)propanamide]	100 to 1000	–	–
Cc1ccccc1S(=O)(=O)NC(=O)N[C@@H](Cc1ccccc1)C(=O)N(C)c1ccc2nccnc2c1 [Example CA-75, (S)—N-methyl-3-phenyl-N-(quinoxalin-6-yl)-2-(3-(o-tolylsulfonyl)ureido)propanamide]	100 to 1000	–	–
Cc1ccccc1S(=O)(=O)NC(=O)N[C@H](C(=O)N(C)c1ccc2c(c1)OCO2)[C@H]1CCc2ccccc21 [Example 84, (S)—N-(benzo[d][1,3]dioxol-5-yl)-2-((S)-2,3-dihydro-1H-inden-1-yl)-N-methyl-2-(3-(o-tolylsulfonyl)ureido)acetamide]	10000 to 100000	22100	–
Cc1ccccc1S(=O)(=O)NC(=O)N[C@@H](Cc1ccccc1)C(=O)N(C)c1ccc2ncn(C)c2c1 [Example CA-73, (S)—N-methyl-N-(1-methyl-H-benzo[d]imidazol-6-yl)-3-phenyl-2-(3-(o-tolylsulfonyl)ureido)propanamide]	100 to 1000	–	–
CN(C(=O)[C@H](Cc1ccccc1)NC(=O)NS(=O)(=O)c1ccccc1Cl)c1ccc2c(c1)CCC2 [Example 206, (S)-2-(3-((2-chlorophenyl)sulfonyl)ureido)-N-(2,3-dihydro-1H-inden-5-yl)-N-methyl-3-phenylpropanamide]	< 100	–	–
CCN(C(=O)[C@H](Cc1ccccc1)NC(=O)NS(=O)(=O)c1cccc(Br)c1)c1ccc(OC)cc1 [Example 112, (S)-2-(3-((3-bromophenyl)sulfonyl)ureido)-N-ethyl-N-(4-methoxyphenyl)-3-phenylpropanamide]	< 100	–	–
CN(C(=O)[C@H](Cc1ccccc1)NC(=O)NS(=O)(=O)c1ccccc1)c1cccc(F)c1 [Example 93]	1000 to 10000	1590	–
CN(C(=O)[C@H](Cc1ccccc1)NC(=O)NS(=O)(=O)c1c(Cl)cccc1Cl)c1ccc2c(c1)OCO2 [Example 100, (S)—N-(benzo[d][1,3]dioxol-5-yl)-2-(3-((2,6-dichlorophenyl)sulfonyl)ureido)-N-methyl-3-phenylpropanamide]	< 100	–	–
CN(C(=O)[C@H](Cc1cc(F)cc(F)c1)NC(=O)NS(=O)(=O)c1ccccc1Cl)c1ccc2scnc2c1 [Example ZY-13, (S)—N-(benzo[d]thiazol-5-yl)-2-(3-((2-chlorophenyl)sulfonyl)ureido)-3-(3,5-difluorophenyl)-N-methylpropanamide]	< 100	30	–
COc1ccc(N(C)C(=O)[C@H](CC2CCCC2)NC(=O)NS(=O)(=O)c2ccccc2C)cc1 [Example 196, (S)-3-cyclopentyl-N-(4-methoxyphenyl)-N-methyl-2-(3-(o-tolylsulfonyl)ureido)propanamide]	10000 to 100000	–	–
CN(C(=O)[C@H](Cc1ccccc1)NC(=O)NS(=O)(=O)c1cccs1)c1ccc2c(c1)OCO2 [Example 31, (S)—N-(benzo[d][1,3]dioxol-5-yl)-N-methyl-3-phenyl-2-(3-(thiophen-2-ylsulfonyl)ureido)propanamide]	100 to 1000	–	–
CN(C(=O)[C@H](Cc1cc(F)cc(F)c1)NC(=O)NS(=O)(=O)c1ccccc1Cl)c1ccc2c(c1)OC(F)(F)O2 [Example 39, (S)-2-(3-((2-chlorophenyl)sulfonyl)ureido)-N-(2,2-difluorobenzo[d][1,3]dioxol-5-yl)-3-(3,5-difluorophenyl)-N-methylpropanamide]	100 to 1000	–	–
COc1ccc(N(CC(F)(F)F)C(=O)[C@H](Cc2ccccc2)NC(=O)NS(=O)(=O)c2ccccc2C)cc1 [Example 200, (S)—N-(4-methoxyphenyl)-3-phenyl-2-(3-(o-tolylsulfonyl)ureido)-N-(2,2,2-trifluoroethyl)propanamide]	100 to 1000	–	–
CN(C(=O)[C@H](Cc1ccccc1)NC(=O)NS(=O)(=O)c1ccccc1Cl)c1ccc2c(c1)OCO2 [Example 7, (S)—N-(benzo[d][1,3]dioxol-5-yl)-2-(3-((2-chlorophenyl)sulfonyl)ureido)-N-methyl-3-phenylpropanamide]	< 100	–	–
CN(C(=O)[C@H](Cc1ccccc1)NC(=O)NS(=O)(=O)c1ccccc1F)c1ccc2c(c1)OC(F)(F)O2 [Example 34, (S)—N-(2,2-difluorobenzo[d][1,3]dioxol-5-yl)-2-(3-((2-fluorophenyl)sulfonyl)ureido)-N-methyl-3-phenylpropanamide]	100 to 1000	–	–
(S)—N-((1-(3,3-dimethylazetidin-1-yl)-1-oxo-3-phenylpropan-2-yl)carbamoyl)-2-methylbenzenesulfonamide [Example 191]	–	–	> 100000
Cc1ccccc1S(=O)(=O)NC(=O)N[C@@H](Cc1ccccc1)C(=O)N(C)c1ccc(NC(=O)N(C)C)cc1 [Example CA-92, (S)—N-(4-(3,3-dimethylureido)phenyl)-N-methyl-3-phenyl-2-(3-(o-tolylsulfonyl)ureido)propanamide]	1000 to 10000	–	–
COc1ccc(N(C)C(=O)[C@H](Cc2cc(F)cc(F)c2)NC(=O)NS(=O)(=O)c2ccccc2C)cc1 [Example 205, (S)-3-(3,5-difluorophenyl)-N-(4-methoxyphenyl)-N-methyl-2-(3-(o-tolylsulfonyl)ureido)propanamide]	100 to 1000	110	–
COC(=O)c1ccccc1S(=O)(=O)NC(=O)N[C@@H](Cc1ccccc1)C(=O)N(C)c1ccc2c(c1)OCO2 [Example 23, (S)-methyl 2-(N-((1-(benzo[d][1,3]dioxol-5-yl(methyl)amino)-1-oxo-3-phenylpropan-2-yl)carbamoyl)sulfamoyl)benzoate]	1000 to 10000	–	–
CN(C(=O)[C@H](Cc1ccccc1)NC(=O)NS(=O)(=O)Cc1cccc(Cl)c1)c1ccc2c(c1)OCO2 [Example 103, (S)—N-(benzo[d][1,3]dioxol-5-yl)-2-(3-((3-chlorobenzyl)sulfonyl)ureido)-N-methyl-3-phenylpropanamide]	100 to 1000	–	–
Cc1ccccc1S(=O)(=O)NC(=O)N[C@@H](Cc1ccccc1)C(=O)N1CCC1 [Example 188, (S)—N-((1-(azetidin-1-yl)-1-oxo-3-phenylpropan-2-yl)carbamoyl)-2-methylbenzenesulfonamide]	10000 to 100000	27500	–
Cc1ccccc1S(=O)(=O)NC(=O)N[C@@H](Cc1ccccc1C#N)C(=O)N(C)c1ccc2c(c1)OCO2 [Example 77, (S)—N-(benzo[d][1,3]dioxol-5-yl)-3-(2-cyanophenyl)-N-methyl-2-(3-(o-tolylsulfonyl)ureido)propanamide]	1000 to 10000	–	–
C=Cc1cccc(S(=O)(=O)NC(=O)N[C@@H](Cc2ccccc2)C(=O)N(CC)c2ccc(OC)cc2)c1 [Example 138, (S)—N-ethyl-N-(4-methoxyphenyl)-3-phenyl-2-(3-((3-vinylphenyl)sulfonyl)ureido)propanamide]	< 100	50	–
COc1ccc(N(C)C(=O)[C@H](Cc2ccccn2)NC(=O)NS(=O)(=O)c2ccccc2C)cc1 [Example 192, (S)—N-(4-methoxyphenyl)-N-methyl-3-(pyridin-2-yl)-2-(3-(o-tolylsulfonyl)ureido)propanamide]	10000 to 100000	–	–
